From ChEMBL document CHEMBL5244250, “Natural sesquiterpenoid oligomers: A chemical perspective” (Eur J Med Chem, 2020)
Converted amounts (≈) assume the structure as drawn.

How the values were obtained:
PC-12 = experiment: Neuroprotective activity against glutamate-induced neurotoxicity in rat PC-12 cells; assay type: functional, cell-based
HT-29 = experiment: Cytotoxicity against human HT-29 cells incubated for 72 hrs by CCK8 assay; assay type: functional, cell-based; conditions: HT-29, 72 h
HL-60 [1] = experiment: Cytotoxicity against human HL-60 cells incubated for 72 hrs by CCK8 assay; assay type: functional, cell-based; conditions: HL-60, 72 h
A549 = experiment: Cytotoxicity against human A549 cells incubated for 72 hrs by CCK8 assay; assay type: functional, cell-based; conditions: A549, 72 h
Bel-7402 = experiment: Cytotoxicity against human Bel-7402 cells incubated for 72 hrs by CCK8 assay; assay type: functional, cell-based; conditions: Bel-7402, 72 h
Plasmodium falciparum = experiment: Antiplasmodial activity against Plasmodium falciparum; assay type: functional, organism-based
CCRF-CEM = experiment: Cytotoxicity against human CCRF-CEM cells; assay type: functional, cell-based
RAW264.7 [2] = experiment: Anti-inflammatory activity in LPS induced mouse RAW264.7 cells assessed as inhibition of NO production by MTT method; assay type: functional, cell-based
HL-60 [3] = experiment: Cytotoxicity against human HL-60 cells; assay type: functional, cell-based
KB = experiment: Cytotoxicity against human KB cells assessed as reduction in cell viability; assay type: functional, cell-based
RAW264.7 [4] = experiment: Anti-inflammatory activity in LPS induced mouse RAW264.7 cells assessed as inhibition of NO production pretreated for 1 hr followed by LPS stimulation and measured after 18 hrs by MTT assay; assay type: functional; conditions: time 19 hrs, read-out: ED50 (the source's name)
HepG2 = experiment: Cytotoxicity against human HepG2 cells incubated for 48 hrs by MTT based colorimetry assay; assay type: functional, cell-based; conditions: HepG2, 48 h
CCRF S-180 = experiment: Cytotoxicity against mouse CCRF S-180 cells incubated for 48 hrs by MTT based colorimetry assay; assay type: functional, cell-based; conditions: CCRF S-180, 48 h
MGC-803 = experiment: Cytotoxicity against human MGC-803 cells incubated for 48 hrs by MTT based colorimetry assay; assay type: functional, cell-based; conditions: MGC-803, 48 h
RAW264.7 [5] = experiment: Anti-inflammatory activity in LPS induced mouse RAW264.7 cells assessed as inhibition of NO production measured after 24 hrs by CCK-8 method; assay type: functional, cell-based; conditions: RAW264.7, 24 h

In the case of C=C1CC[C@H]2C(=C)CC[C@@H]3[C@H](OC(=O)[C@]3(CC(C)=O)C[C@@H]3CC[C@H]4C(=C)CC[C@H]5C(=C)C(=O)O[C@@H]5[C@@H]34)[C@@H]12, the EC50 (PC-12) is reported as 2110 nM.

Compound C=C1CC[C@H]2C(=C)C(=O)O[C@@H]2[C@@H]2[C@H]1[C@@H](C[C@@H]1C(=O)C3C4[C@H]1[C@H]1OC(=O)C(=C)[C@@H]1CC[C@]4(O)CC[C@]31C(=O)C[C@H]3C(=C)CC[C@H]4C(=C)C(=O)O[C@@H]4[C@H]31)C(=O)[C@@]2(O)CC[C@@H]1C(=O)C[C@H]2C(=C)CC[C@H]3C(=C)C(=O)O[C@@H]3[C@@H]12 (stereo not given in full) has an IC50 (HT-29) of 2000 nM, an IC50 (HL-60 [1]) of 2000 nM and an IC50 (A549) of 2000 nM. The IC50 (Bel-7402) was 2000 nM.

Work on C/C=C(\C)C(=O)O[C@@H]1CC([C@H](O)[C@]2(C)C=C3OC(=O)C4=C3[C@H]2[C@H]2OC(=O)[C@H](C)[C@@H]2[C@H](OC(=O)/C(C)=C/C)C4)=C2C(=O)C=C(C)[C@@H]2[C@H]2OC(=O)[C@H](C)[C@@H]21 yielded an IC50 (Plasmodium falciparum) of 2000 nM.

C=C1C(=O)O[C@H]2C[C@H](C)[C@@]34C[C@@H](C[C@@]35C(=O)O[C@H]3C=C(C)[C@H]6CC[C@@](C)(O)[C@@H]6C[C@@H]35)C(C)=C4C[C@H]12 was tested, and the IC50 (CCRF-CEM) was 2030 nM.

C=C1CC[C@H]2C(=C)CC[C@@H]3[C@H](OC(=O)[C@H]3C[C@@]3(CC(C)=O)C(=O)O[C@@H]4C/C(C)=C\CC/C=C(/C)C[C@H]43)[C@@H]12 gave an IC50 (RAW264.7 [2]) of 4.89 µM.

In the case of C=C1C(=O)O[C@H]2C[C@H](C)C3=C(C[C@H]12)[C@@]1(C)C[C@H]3C[C@@]12C(=O)O[C@@H]1C[C@@]3(C)[C@@H](O)C[C@@H](O)C(=C)[C@@H]3C[C@@H]12, the IC50 (CCRF-CEM) is reported as 140 nM.

In the case of COC(=O)/C(C)=C1\C(=O)[C@H](O)[C@@]2(C)[C@@H]3C[C@@H]3C3=C[C@@]4(C)[C@@]5(C)[C@@H]6C[C@@H]6[C@@]6(O)COC(=O)/C(C)=C/COC(=O)C(O)CC(=O)OCC7=C(C[C@@H]65)[C@@]4(OC7=O)[C@@H]1[C@]32OO (stereo not given in full), the IC50 (HL-60 [3]) is reported as 0.03 µM.

In the case of C=C1C(=O)O[C@H]2C[C@H](C)C3=C(C[C@H]12)[C@]1(C)C[C@H]3C[C@@]12C(=O)O[C@@H]1C[C@H](C)C(CCC(C)=O)=CC[C@@H]12, the IC50 (HL-60 [3]) is reported as 7.5 µM.

Compound C=C1CCC[C@]2(C)CC[C@@H](C(C)C)[C@H](NC(=O)[C@H]3C[C@H](O)C[C@@H](C(=O)N[C@H]4[C@H](C(C)C)CC[C@@]5(C)CCCC(=C)[C@]45C)N3CCC(=O)OC)[C@@H]12 has an IC50 (KB) of 10.6 µg/mL (≈ 15.2 µM).

With C=C1C(=O)O[C@H]2C[C@H](C)C3=C(C[C@H]12)[C@]1(C)C[C@@H]3C[C@@]12C(=O)O[C@@H]1C[C@@]3(C)[C@@H](O)C[C@@H](O)C(=C)[C@@H]3C[C@@H]12 the IC50 (CCRF-CEM) was 140 nM.

In the case of C=C1CC[C@H]2C(=C)C(=O)O[C@@H]2[C@@H]2[C@H]1[C@@H](C[C@@H]1C(=O)C3C4[C@H]1[C@H]1OC(=O)C(=C)[C@@H]1CC[C@@]4(O)CC[C@]31C(=O)C[C@H]3C(=C)CC[C@H]4C(=C)C(=O)O[C@@H]4[C@H]31)C(=O)[C@@]2(O)CC[C@@H]1C(=O)C[C@H]2C(=C)CC[C@H]3C(=C)C(=O)O[C@@H]3[C@@H]12 (stereo not given in full), the IC50 (HT-29) is reported as 2000 nM, the IC50 (HL-60 [1]) is reported as 2000 nM and the IC50 (A549) is reported as 2000 nM. The IC50 (Bel-7402) was 2000 nM.

Compound C=C1C(=O)O[C@H]2C[C@H](C)C3=C(C[C@H]12)[C@@]1(C)C[C@@H]3C[C@@]12C(=O)O[C@H]1C=C(C)[C@H]3CC[C@@](C)(O)[C@@H]3C[C@@H]12 has an IC50 (CCRF-CEM) of 2030 nM.

For C[C@@H]1CC(=O)c2c3c(nc4c2[C@@]1(C)[C@H]1[C@@H](C4=O)C1(C)C)C[C@]1(C)C(=CCC[C@H]1C)C3=O, the EC50 (RAW264.7 [4]) was 5.73 µM.

CC(=O)C1=C(Oc2oc3c(c2C)C[C@@]2(C)[C@H](CCC[C@@H]2C)[C@@H]3O)C[C@H]2CCC[C@H](C)[C@@]2(C)C1 was tested, and the IC50 (HepG2) was 11.9 µM, the IC50 (CCRF S-180) was 11.9 µM and the IC50 (MGC-803) was 11.9 µM.

C=C1C(=O)O[C@H]2C[C@@H](C)C3=C(C[C@H]12)[C@@]1(C)C[C@@H]3C[C@@]12C(=O)O[C@@H]1C[C@@]3(C)[C@@H](O)C[C@@H](O)C(=C)[C@@H]3C[C@@H]12 was tested, and the IC50 (CCRF-CEM) was 140 nM.

In the case of C=C1CC[C@H]2C(=C)CC[C@@H]3[C@H](OC(=O)[C@H]3C[C@@]3(CC(C)=O)C(=O)O[C@@H]4[C@H]5C(C)=CCCC5(C)CC[C@H]43)[C@@H]12 (stereo not given in full), the IC50 (RAW264.7 [2]) is reported as 7.24 µM.

C=C1C(=O)O[C@H]2[C@@H]1CCC1=C(C)[C@H]3CC1(C[C@@]31C(=O)O[C@H]3C[C@H](C)[C@@]45C[C@@]6(C(=O)O[C@@H]7C[C@H](C)C(CCC(C)=O)=CC[C@@H]76)[C@@H](C(C)=C4C[C@@H]31)C5OC(C)=O)[C@H]2C (stereo not given in full) gave an IC50 (RAW264.7 [5]) of 1900 nM.
